Entries after “also recorded” stand apart in the source; their conditions may differ.
Assays:
[1] = target: T1, human Cav3.2 (Homo sapiens, UniProt O95180); experiment: Whole-cell patch clamp of T-type Ca2+ currents in Cav3.2-stable transfected HEK 293 cells; format: cell-based
T1 construct: host or cells: HEK 293
Protocol: Certain exemplary embodiments have undergone target identification studies to discover a better officious T-type calcium blocker. The fourteen trifluoromethylated N-benzamide enaminone compounds were synthesized, purified, and structure confirmed using gas chromatography/mass spectroscopy, nuclear magnetic resonance, and elemental analysis. Preliminary in vitro whole cell patch clamp experiments were performed to assess the inhibitory effects of several target analogs on voltage-activated calcium currents in human embryonic kidney (HEK-293) cells. Cav3.2 transfected HEK 293 cells were treated with 50 μM of test compounds and compared to the control group (none pretreated HEK 293 cells).
(§1) ND7/23 cells are derived from the fusion of mouse neuroblastoma and rat dorsal root ganglion cells, which generates a more homogeneous sensory neuron-like cell population. ND7/23 cells were purchased from Sigma-Aldrich (RRID:CVCL_4259). Culture and differentiation of ND7/23 cells was performed as previously described. Briefly, ND7/23 cells were cultured in DMEM/F12 culture media (Millipore, Cat. #DF-041-B), supplemented with 0.5% fetal bovine serum (Invitrogen, Cat. #10437010), db-cAMP (1 mM, Sigma-Aldrich, Cat. #D0627), and nerve growth factor (NGF, 50 ng/mL, Sigma-Aldrich, Ca. #N2513). To remove any proliferating cells, cultures were treated with uridine (20 μM, Sigma-Aldrich, Cat. #U3003) and fluorodeoxyuridine (20 μM, Sigma-Aldrich, Cat. #F0503). Cells were maintained in differentiation media without uridine and fluorodeoxyuridin after induction of differentiation. ND7/23 cells were maintained in differentiation media for ≤6 days. HEK 293 cells that were stabled transfected with the human Cav3.2 and Cav3.3 channel subunits were a gift of Dr. E. Perez-Reyes (University of Virginia). Cav3.2 (or Cav3.3)-stabled transfected HEK 293 cells were culture in DMEM/F12 culture media, supplemented with 5% fetal bovine serum, 50 U/mL penicillin and 50 μg/mL streptomycin. ND7/23 and HEK 293 cells were grown in an incubator at 37° C. in the presence of 5% CO2/95% air humidified atmosphere. Cells passaged less than 20 times were used in this work. Cells were grown in poly-D-lysine-coated glass coverslips for electrophysiological recordings.
Whole cell recordings were performed as previously described. A Nikon Eclipse Ti inverted microscope equipped with Hoffman optics and epifluorescence filters was used to visualize individual cells. Recordings were performed at room temperature (22-24° C.) using glass electrodes made from thin wall borosilicate glass (3-5 MΩ). For electrophysiological recordings of inward Ca^2+ currents, outward K^+ currents were eliminated by equimolar substitution of K^+ with Cs^+ in the pipette solution, whereas inward Na^+ currents were eliminated by the use of TEA ions in the external solution, which are unable to go through voltage-gated Na^+ channels. The pipette solution consisted of (in mM) CsCl (120), MgCl2(2), HEPES (10), EGTA (10), ATP (1), and GTP (0.1), pH 7.4 with CsOH. The composition of the normal external saline used for measurements of Ca^2+ currents was (in mM): tetraethylammonium chloride (TEACl, 145), CaCl2 (10), MgCl2(1), HEPES (10), and glucose (5), pH 7.4 adjusted with CsOH. Ca^2+ currents were generated by applying a 200-500 ms-depolarizing step to various potentials from a holding potential of −100 mV. The external solution used to measure Na^+ currents contained (in mM) NaCl (145), KCl (5.3), CaCl2 (0.5), MgCl2 (5.7), HEPES (13), and glucose (5), pH 7.4 adjusted with KOH. The composition of the CsCl-pipette solution used to record Na^+ currents was the same describe above. Na^+ currents were generated by applying a 20 ms-depolarizing step to various potentials from a holding potential of −100 mV. To assess drug-evoked changes on specific ionic conductances, current amplitudes were expressed as current densities as previously reported. […]

[2] = test system: T-type Ca^2+ channels; experiment: Whole-cell recording of T-type Ca2+ currents in differentiated ND7/23 cells; format: cell-based, mouse neuroblastoma and rat dorsal root ganglion cells; settings: for Effect on T-type Ca2+ current density: vs non-treated cells
Protocol: as §1
(§2) Whole cell recordings were performed as previously described. A Nikon Eclipse Ti inverted microscope equipped with Hoffman optics and epifluorescence filters was used to visualize individual cells. Recordings were performed at room temperature (22-24° C.) using glass electrodes made from thin wall borosilicate glass (3-5 MΩ). For electrophysiological recordings of inward Ca^2+ currents, outward K^+ currents were eliminated by equimolar substitution of K^+ with Cs^+ in the pipette solution, whereas inward Na^+ currents were eliminated by the use of TEA ions in the external solution, which are unable to go through voltage-gated Na^+ channels. The pipette solution consisted of (in mM) CsCl (120), MgCl2(2), HEPES (10), EGTA (10), ATP (1), and GTP (0.1), pH 7.4 with CsOH. The composition of the normal external saline used for measurements of Ca^2+ currents was (in mM): tetraethylammonium chloride (TEACl, 145), CaCl2 (10), MgCl2(1), HEPES (10), and glucose (5), pH 7.4 adjusted with CsOH. Ca^2+ currents were generated by applying a 200-500 ms-depolarizing step to various potentials from a holding potential of −100 mV. The external solution used to measure Na^+ currents contained (in mM) NaCl (145), KCl (5.3), CaCl2 (0.5), MgCl2 (5.7), HEPES (13), and glucose (5), pH 7.4 adjusted with KOH. The composition of the CsCl-pipette solution used to record Na^+ currents was the same describe above. Na^+ currents were generated by applying a 20 ms-depolarizing step to various potentials from a holding potential of −100 mV. To assess drug-evoked changes on specific ionic conductances, current amplitudes were expressed as current densities as previously reported. To assess current densities, cell size was normalized by dividing current amplitudes by cell capacitance. Cell capacitance was determined by integrating the transient current evoked by a 10-mV voltage step from a holding potential of −60 mV.
(§3) A MULTICLAMP 700A amplifier and PCLAMP software (Axon Instruments) was used to deliver voltage commands and to perform data acquisition and analysis. Pipette offset, whole cell capacitance, and series resistance were compensated automatically with the MultiClamp 700B Commander. Only cells with stable seals and series resistance (≤10 MΩ) were analyzed. Sampling rates were between 5 and 10 kHz. Leak currents were subtracted online using a P/4 protocol. […]

[3] = target: T2, human Cav3.3 (Homo sapiens, UniProt Q9P0X4); experiment: Whole-cell patch clamp of T-type Ca2+ currents in Cav3.3-stable transfected HEK 293 cells; format: cell-based
T2 construct: host or cells: HEK 293
T2 sequence (Q9P0X4 whole entry): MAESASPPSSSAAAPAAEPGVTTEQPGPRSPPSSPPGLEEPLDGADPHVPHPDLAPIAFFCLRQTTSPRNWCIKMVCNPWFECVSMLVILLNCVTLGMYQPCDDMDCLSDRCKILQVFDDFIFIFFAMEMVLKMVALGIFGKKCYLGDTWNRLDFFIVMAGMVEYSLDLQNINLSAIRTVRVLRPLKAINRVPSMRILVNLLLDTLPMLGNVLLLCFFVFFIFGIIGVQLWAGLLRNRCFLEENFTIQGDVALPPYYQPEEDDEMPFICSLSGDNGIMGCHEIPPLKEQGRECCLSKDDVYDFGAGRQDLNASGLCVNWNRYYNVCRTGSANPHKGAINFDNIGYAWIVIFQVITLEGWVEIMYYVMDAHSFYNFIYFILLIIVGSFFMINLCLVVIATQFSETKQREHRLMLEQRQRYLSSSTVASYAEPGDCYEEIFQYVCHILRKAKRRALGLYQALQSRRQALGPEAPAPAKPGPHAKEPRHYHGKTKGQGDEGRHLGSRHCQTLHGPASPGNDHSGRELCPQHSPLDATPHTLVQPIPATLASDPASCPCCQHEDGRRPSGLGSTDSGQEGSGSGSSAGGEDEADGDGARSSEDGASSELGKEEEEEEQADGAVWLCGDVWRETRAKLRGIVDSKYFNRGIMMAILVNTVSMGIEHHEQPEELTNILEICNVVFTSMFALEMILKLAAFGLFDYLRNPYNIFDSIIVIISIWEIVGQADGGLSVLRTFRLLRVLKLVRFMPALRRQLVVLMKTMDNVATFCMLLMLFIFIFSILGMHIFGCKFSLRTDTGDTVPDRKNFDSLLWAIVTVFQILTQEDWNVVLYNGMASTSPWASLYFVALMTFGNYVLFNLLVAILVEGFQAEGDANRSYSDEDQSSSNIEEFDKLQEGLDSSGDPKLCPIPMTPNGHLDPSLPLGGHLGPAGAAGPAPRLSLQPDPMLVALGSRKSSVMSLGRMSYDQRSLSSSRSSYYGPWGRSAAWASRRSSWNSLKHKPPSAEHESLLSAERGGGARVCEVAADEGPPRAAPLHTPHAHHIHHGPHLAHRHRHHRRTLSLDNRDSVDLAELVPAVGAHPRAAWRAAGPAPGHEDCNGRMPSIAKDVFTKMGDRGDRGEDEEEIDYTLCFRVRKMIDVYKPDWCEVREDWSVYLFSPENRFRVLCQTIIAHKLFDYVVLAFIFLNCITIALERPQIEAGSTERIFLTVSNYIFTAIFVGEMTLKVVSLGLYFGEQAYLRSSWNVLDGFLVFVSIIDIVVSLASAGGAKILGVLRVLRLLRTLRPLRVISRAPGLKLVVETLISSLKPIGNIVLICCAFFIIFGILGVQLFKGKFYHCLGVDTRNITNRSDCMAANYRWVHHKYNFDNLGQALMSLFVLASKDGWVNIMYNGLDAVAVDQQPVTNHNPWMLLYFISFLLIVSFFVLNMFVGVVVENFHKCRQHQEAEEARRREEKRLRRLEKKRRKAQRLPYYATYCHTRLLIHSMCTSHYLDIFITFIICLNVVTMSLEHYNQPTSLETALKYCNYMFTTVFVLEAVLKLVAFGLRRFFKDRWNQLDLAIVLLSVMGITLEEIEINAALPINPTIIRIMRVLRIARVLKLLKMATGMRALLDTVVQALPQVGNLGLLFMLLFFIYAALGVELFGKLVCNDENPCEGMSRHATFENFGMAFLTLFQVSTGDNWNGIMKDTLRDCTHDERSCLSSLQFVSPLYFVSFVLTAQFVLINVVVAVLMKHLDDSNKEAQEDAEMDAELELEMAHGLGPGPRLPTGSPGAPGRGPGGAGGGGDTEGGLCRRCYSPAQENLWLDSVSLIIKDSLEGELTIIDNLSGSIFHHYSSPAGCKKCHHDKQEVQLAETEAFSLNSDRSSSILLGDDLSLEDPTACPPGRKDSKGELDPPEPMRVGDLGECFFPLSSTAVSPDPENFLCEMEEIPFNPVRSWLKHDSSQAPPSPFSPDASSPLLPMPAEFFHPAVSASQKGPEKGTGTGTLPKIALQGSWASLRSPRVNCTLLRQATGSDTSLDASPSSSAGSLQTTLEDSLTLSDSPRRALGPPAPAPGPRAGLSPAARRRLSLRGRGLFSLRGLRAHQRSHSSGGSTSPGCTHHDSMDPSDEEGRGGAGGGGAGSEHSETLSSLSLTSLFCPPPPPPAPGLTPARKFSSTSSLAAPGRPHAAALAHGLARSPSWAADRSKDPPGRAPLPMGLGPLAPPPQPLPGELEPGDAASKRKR
Protocol: as §1, §2, §3

[4] = test system: voltage-activated Na^+ channels; experiment: Whole-cell recording of Na+ currents in differentiated ND7/23 cells; format: cell-based, mouse neuroblastoma and rat dorsal root ganglion cells; settings: 50 μM
Protocol: as §1
Whole cell recordings were performed as previously described. A Nikon Eclipse Ti inverted microscope equipped with Hoffman optics and epifluorescence filters was used to visualize individual cells. Recordings were performed at room temperature (22-24° C.) using glass electrodes made from thin wall borosilicate glass (3-5 MΩ). For electrophysiological recordings of inward Ca^2+ currents, outward K^+ currents were eliminated by equimolar substitution of K^+ with Cs^+ in the pipette solution, whereas inward Na^+ currents were eliminated by the use of TEA ions in the external solution, which are unable to go through voltage-gated Na^+ channels. […] To assess drug-evoked changes on specific ionic conductances, current amplitudes were expressed as current densities as previously reported. […] Cell capacitance was determined by integrating the transient current evoked by a 10-mV voltage step from a holding potential of −60 mV.
A MULTICLAMP 700A amplifier and PCLAMP software (Axon Instruments) was used to deliver voltage commands and to perform data acquisition and analysis. […] Only cells with stable seals and series resistance (≤10 MΩ) were analyzed. […]

[5] = test system: differentiated ND7/23 cells; experiment: Intracellular calcium signals in differentiated ND7/23 cells stimulated with KCl or ionomycin; format: cell-based, mouse neuroblastoma and rat dorsal root ganglion cells; settings: 10 μM, control cells
Protocol: FIGS. 14A-C. Effect of RHB121 on the intracellular calcium signals generated in differentiated ND7/23 cells following stimulation with 30 mM extracellular K+ ions or the calcium ionophore ionomycin (10 μM). FIG. 14A. […] FIG. 14B. […] FIG. 14C. Relative changes in the intracellular calcium signal generated in differentiated ND7/23 cells by 30 mM KCl or Ionomycin (10 μM) in control or RHB121-treated cells. Control groups were arbitrarily assigned a 100% intracellular calcium signal.
To assess the effect of RHB121 on intracellular calcium signals, differentiated ND7/23 cells with a high potassium concentration (30 mM KCl) were simulated. The effect of the calcium ionophore Ionomycin, which also can increase intracellular calcium by a different mechanism, independently of T-type Ca^2+ channel activation, was also tested. Stimulation of differentiated ND7/23 with 30 mM KCl external solution caused a small increase in the intracellular calcium signal (FIG. 14A).

[6] = 50 μM, differentiated ND7/23 cells
[7] = 50 μM, HEK 293-Cav3.2 cells, vs non-treated cells
[8] = increasing concentrations 1-50 μM

T1 sequence (O95180 whole entry): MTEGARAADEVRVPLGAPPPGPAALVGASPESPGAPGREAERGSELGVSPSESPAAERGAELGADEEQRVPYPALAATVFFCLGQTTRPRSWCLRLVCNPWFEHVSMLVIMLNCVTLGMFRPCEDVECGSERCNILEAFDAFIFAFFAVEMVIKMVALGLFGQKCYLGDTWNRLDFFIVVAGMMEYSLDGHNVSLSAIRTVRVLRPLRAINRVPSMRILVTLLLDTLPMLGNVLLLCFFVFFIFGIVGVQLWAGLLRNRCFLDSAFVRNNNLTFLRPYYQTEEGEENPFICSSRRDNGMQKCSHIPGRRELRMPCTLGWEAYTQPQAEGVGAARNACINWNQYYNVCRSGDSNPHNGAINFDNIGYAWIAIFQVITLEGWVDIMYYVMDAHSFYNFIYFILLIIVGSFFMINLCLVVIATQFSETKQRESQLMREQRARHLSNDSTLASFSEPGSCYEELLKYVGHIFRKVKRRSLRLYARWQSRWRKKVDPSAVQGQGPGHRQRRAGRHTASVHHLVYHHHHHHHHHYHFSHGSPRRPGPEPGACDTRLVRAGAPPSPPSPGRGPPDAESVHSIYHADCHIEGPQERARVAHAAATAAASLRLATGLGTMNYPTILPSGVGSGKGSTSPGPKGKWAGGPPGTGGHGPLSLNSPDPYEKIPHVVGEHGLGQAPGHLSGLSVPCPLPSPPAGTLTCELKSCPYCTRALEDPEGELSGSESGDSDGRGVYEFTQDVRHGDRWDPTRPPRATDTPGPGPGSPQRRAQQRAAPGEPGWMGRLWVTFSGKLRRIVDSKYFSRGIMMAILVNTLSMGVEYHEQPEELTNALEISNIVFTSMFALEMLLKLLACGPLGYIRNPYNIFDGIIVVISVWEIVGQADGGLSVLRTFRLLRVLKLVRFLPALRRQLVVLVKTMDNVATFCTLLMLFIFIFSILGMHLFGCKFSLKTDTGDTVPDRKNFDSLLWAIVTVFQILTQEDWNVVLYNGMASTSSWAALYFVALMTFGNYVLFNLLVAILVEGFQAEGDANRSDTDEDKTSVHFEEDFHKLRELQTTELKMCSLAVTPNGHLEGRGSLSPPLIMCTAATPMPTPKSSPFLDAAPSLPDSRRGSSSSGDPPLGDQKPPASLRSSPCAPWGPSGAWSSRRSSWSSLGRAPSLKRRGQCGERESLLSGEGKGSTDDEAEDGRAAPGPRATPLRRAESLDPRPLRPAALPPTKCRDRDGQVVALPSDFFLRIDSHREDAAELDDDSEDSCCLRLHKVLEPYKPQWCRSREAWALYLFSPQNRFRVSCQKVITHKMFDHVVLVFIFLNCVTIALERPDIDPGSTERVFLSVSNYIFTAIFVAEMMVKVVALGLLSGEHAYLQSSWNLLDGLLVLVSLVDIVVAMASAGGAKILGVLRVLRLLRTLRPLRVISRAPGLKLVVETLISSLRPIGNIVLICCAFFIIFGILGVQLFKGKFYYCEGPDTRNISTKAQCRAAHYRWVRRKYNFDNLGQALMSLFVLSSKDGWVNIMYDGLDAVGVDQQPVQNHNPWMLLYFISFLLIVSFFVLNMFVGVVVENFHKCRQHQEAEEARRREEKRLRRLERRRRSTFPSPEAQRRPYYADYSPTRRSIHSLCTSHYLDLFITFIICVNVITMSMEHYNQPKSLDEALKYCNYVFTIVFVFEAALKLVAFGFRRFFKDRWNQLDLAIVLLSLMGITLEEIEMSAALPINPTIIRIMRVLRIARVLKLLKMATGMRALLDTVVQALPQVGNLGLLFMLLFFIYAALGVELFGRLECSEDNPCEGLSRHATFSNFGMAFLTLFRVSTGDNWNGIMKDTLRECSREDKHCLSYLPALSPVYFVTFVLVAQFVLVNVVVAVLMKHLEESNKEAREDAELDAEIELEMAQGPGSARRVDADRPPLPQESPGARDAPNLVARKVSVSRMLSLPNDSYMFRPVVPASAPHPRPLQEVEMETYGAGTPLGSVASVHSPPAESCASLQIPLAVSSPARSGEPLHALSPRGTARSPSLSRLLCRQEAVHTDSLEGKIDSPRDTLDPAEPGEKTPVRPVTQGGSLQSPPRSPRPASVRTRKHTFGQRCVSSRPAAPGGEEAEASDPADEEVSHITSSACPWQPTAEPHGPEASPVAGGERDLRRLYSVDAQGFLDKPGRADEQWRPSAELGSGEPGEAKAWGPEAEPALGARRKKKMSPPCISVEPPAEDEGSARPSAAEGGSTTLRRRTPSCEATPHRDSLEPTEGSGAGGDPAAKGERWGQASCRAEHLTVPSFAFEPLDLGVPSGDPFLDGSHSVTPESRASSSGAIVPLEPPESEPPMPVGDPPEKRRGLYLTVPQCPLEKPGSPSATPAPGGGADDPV

CC1CC(=O)C=C(NC(=O)c2cccc(OC(F)(F)F)c2)C1 (stereo not drawn) [ABA58]
Effect on whole cell capacitance ([1]; 50 μM, HEK 293-Cav3.2 cells): no significant changes; also recorded: no effect on cell capacitance

CC1CC(=O)C=C(NC(=O)c2ccccc2F)C1 (stereo not drawn) [IAB67, 2-fluoro-N-(5-methyl-3-oxocyclohex-1-en-1-yl) benzamide]
Effect on T-type Ca2+ current density [2, 6]: None of the tested compounds has any effect
Effect on T-type Ca2+ current density ([2]; 50 μM, differentiated ND7/23 cells, listed as IAB65): no effect on Ca^2+ current densities

O=C1C=C(NC(=O)c2cccc(C(F)(F)F)c2F)CC(C(F)(F)F)C1 (stereo not drawn) [RHB103]
Effect on T-type Ca2+ current density [1, 7]: No inhibitory effect

CC1CC(=O)C=C(NC(=O)c2cc(C(F)(F)F)cc(C(F)(F)F)c2)C1 (stereo not drawn) [IAA65, N-(5-methyl-3-oxocyclohex-1-en-1-yl)-3,5-bis(trifluoromethyl) benzamide]
Reversal of the effect on T-type Ca2+ current density after drug washout ([2]; 50 μM, 5 min washout): no significant recovery; also recorded: did not reverse the drug effect
Effect on T-type Ca2+ current density [2, 6]: significant reduction
IC50 ([2]; differentiated ND7/23 cells, read-out: IC50 on T-type Ca2+ current densities): 10.6 µM
Effect on activation time constant (τ) ([1]; 10 μM): no significant changes; also recorded: no effect
Effect on inactivation time constant (τ) ([1]; 10 μM): no effect on the inactivation τ
Effect on peak current ([1]; 10 μM): significant reduction
Shift in voltage-dependence of T-type Ca2+ currents ([1]; 10 μM): without significant changes; also recorded: no significant shift
Shift of the steady-state inactivation curve ([1]; 10 μM): leftward shift
Effect on cell capacitance ([1]; 1-50 μM): no effect on cell capacitance
Effect on T-type Ca2+ current density [1, 8]: significant reduction
V1/2 of steady-state inactivation (Boltzmann fit) ([1]; treated cells, 10 μM): −70.2±1.0 mV
Effect on activation time constant (τ) ([3]; 10 μM): rightward shift; also recorded: significant increase
Effect on inactivation time constant (τ) ([3]; 10 μM): significant reduction
Effect on steady-state inactivation ([3]; 10 μM): no effect
Effect on voltage-current relationship ([3]; 10 μM): considerable reduction
Shift in voltage-dependence of T-type Ca2+ currents ([3]; 10 μM): no significant shift
Effect on cell capacitance ([3]; 1-50 μM): no effect on call capacitance; also recorded: no effect on cell capacitance
Effect on T-type Ca2+ current density [3, 8]: significant reduction
V1/2 of steady-state inactivation (Boltzmann fit) ([3]; treated cells, 10 μM): −58.5±2.1 mV
Effect on Na+ current density [4]: no noticeable effect; also recorded: no effect on the Na^+ current densities

CC1CC(=O)C=C(NC(=O)c2ccccc2C(F)(F)F)C1 (stereo not drawn) [IAA61, N-(5-methyl-3-oxocyclohex-1-en-1-yl)-2-(trifluoromethyl) benzamide]
Effect on T-type Ca2+ current density [2, 6]: no effect
Effect on Na+ current density [4]: no noticeable effect

O=C1C=C(NC(=O)c2cc(F)cc(F)c2)CC(C(F)(F)F)C1 (stereo not drawn) [RHB107]
Effect on whole cell capacitance ([1]; 50 μM, HEK 293-Cav3.2 cells): no significant changes; also recorded: no effect on cell capacitance

CC1CC(=O)C=C(NC(=O)c2cccc(C(F)(F)F)c2)C1 (stereo not drawn) [IAB15, N-(5-methyl-3-oxocyclohex-1-en-1-yl)-3-(trifluoromethyl) benzamide]
Effect on T-type Ca2+ current density [2, 6]: significant reduction
Effect on Na+ current density [4]: no noticeable effect; also recorded: no effect on the Na^+ current densities

O=C1C=C(NC(=O)c2cc(C(F)(F)F)cc(C(F)(F)F)c2)CC(C(F)(F)F)C1 (stereo not drawn) [RHB-77, N-(3-oxo-5-(trifluoromethyl)cyclohex-1-en-1-yl)-3,5-bis(trifluoromethyl)benzamide]
inhibition at 50 µM ([1]; HEK293, 50 μM, Cav3.2 transfected HEK 293 cells, read-out: Inhibition of calcium currents on T-type calcium channels): 90%
Concentration dependence of the inhibition of T-type Ca2+ currents ([1]; HEK 293-Cav3.2 cells): significant inhibition of T-type calcium currents in a concentration-dependent manner

C[C@H](CCC(=O)O)C[C@H](C)C[C@H](C)C(=O)/C=C(\O)[C@H](C)C[C@H](C)C/C=C/[C@@H](C)[C@@H](O)[C@@H](C)[C@@H](O)C[C@@H]1CC[C@@](C)([C@H]2CC[C@@](C)([C@@H](C)O)O2)O1 [Ionomycin, reference compound]
Change in intracellular calcium signal on stimulation [5]: significant increase

CC(C)C1CC(=O)C=C(NC(=O)c2ccc(C(F)(F)F)cc2)C1 (stereo not drawn) [IAC41, N-(5-isopropyl-3-oxocyclohex-1-en-1-yl)-4-(trifluoromethyl) benzamide]
Effect on T-type Ca2+ current density [2, 6]: None of the tested compounds has any effect; also recorded: no effect on Ca^2+ current densities

CC1CC(=O)C=C(NC(=O)c2ccc(C(F)(F)F)cc2)C1 (stereo not drawn) [THA40, N-(5-methyl-3-oxocyclohex-1-en-1-yl)-4-(trifluoromethyl) benzamide]
Effect on T-type Ca2+ current density [2, 6]: None of the tested compounds has any effect
Effect on T-type Ca2+ current density ([2]; 50 μM, differentiated ND7/23 cells, listed as TTA40): no effect on Ca^2+ current densities

Cc1cc(C)cc(C(=O)NC2=CC(=O)CC(C)C2)c1 (stereo not drawn) [RHB59, 3,5-dimethyl-N-(5-methyl-3-oxocyclohex-1-en-1-yl)benzamide]
Effect on T-type Ca2+ current density [1, 7]: No inhibitory effect

Source: patent publication US20240382438A1, “Calcium Channel Blockers and Methods Thereof” (University of Maryland, Eastern Shore, priority 2023, published 2024)
